Measured values taken from publication PMC5218480 (PLoS ONE, 2017).

Test system: MV-4-11 cells
Experiment: Gene expression microarray analysis (Affymetrix PrimeView) and GSEA
Type: cell-based, human
Parameters: RFU PODN (11730768_x_at) / Fold change /veh PODN (11730768_x_at) / RFU LINC00158 (11744669_a_at) / Fold change /veh LINC00158 (11744669_a_at) / RFU DUSP10 (11751237_a_at) / Fold change /veh DUSP10 (11751237_a_at) / RFU ID3 (11757404_x_at) / Fold change /veh ID3 (11757404_x_at) / RFU PLEKHG5 (11737974_s_at) / Fold change /veh PLEKHG5 (11737974_s_at) / RFU LRRC4B (11730491_at) / Fold change /veh LRRC4B (11730491_at) / RFU GIMAP4 (11747438_a_at) / Fold change /veh GIMAP4 (11747438_a_at) / RFU KRT8 (11758183_x_at) / Fold change /veh KRT8 (11758183_x_at) / RFU CNN1 (11734310_a_at) / Fold change /veh CNN1 (11734310_a_at) / RFU VPS37D (11726825_at) / Fold change /veh VPS37D (11726825_at) / RFU C10orf10 (11716522_x_at) / Fold change /veh C10orf10 (11716522_x_at) / RFU KIR2DL2 /// KIR2DL4 /// KIR2DL5A /// KIR2DL5B /// KIR2DS1 /// KIR2DS2 /// KIR2DS3 /// KIR2DS4 /// KIR3DL3 /// KIR3DL3 /// KIR3DS1 (11738374_at) / Fold change /veh KIR2DL2 /// KIR2DL4 /// KIR2DL5A /// KIR2DL5B /// KIR2DS1 /// KIR2DS2 /// KIR2DS3 /// KIR2DS4 /// KIR3DL3 /// KIR3DL3 /// KIR3DS1 (11738374_at) / RFU C1QL1 (11718748_at) / Fold change /veh C1QL1 (11718748_at) / RFU TMPRSS4 (11747572_a_at) / Fold change /veh TMPRSS4 (11747572_a_at) / RFU HAMP (11756126_x_at) / Fold change /veh HAMP (11756126_x_at) / RFU RNFT2 (11725882_a_at) / Fold change /veh RNFT2 (11725882_a_at) / RFU NR4A2 (11747474_a_at) / Fold change /veh NR4A2 (11747474_a_at) / RFU ABCC12 (11746883_a_at) / Fold change /veh ABCC12 (11746883_a_at) / RFU TMEM136 (11760407_x_at) / Fold change /veh TMEM136 (11760407_x_at) / RFU CLDN22 /// WWC2 (11732394_at) / Fold change /veh CLDN22 /// WWC2 (11732394_at) / RFU HLA-DPB1 (11760878_x_at) / Fold change /veh HLA-DPB1 (11760878_x_at) / RFU SPINT1 (11716480_a_at) / Fold change /veh SPINT1 (11716480_a_at) / RFU GAP43 (11754022_s_at) / Fold change /veh GAP43 (11754022_s_at) / RFU A4GNT (11735810_at) / Fold change /veh A4GNT (11735810_at) / RFU PRB3 (11715151_x_at) / Fold change /veh PRB3 (11715151_x_at) / RFU TUBB4B (11761932_at) / Fold change /veh TUBB4B (11761932_at) / RFU CAPN14 (11732068_a_at) / Fold change /veh CAPN14 (11732068_a_at) / RFU TMCC2 (11721928_a_at) / Fold change /veh TMCC2 (11721928_a_at) / RFU IRGQ (11745062_a_at) / Fold change /veh IRGQ (11745062_a_at) / RFU FAM174B (11720279_a_at) / Fold change /veh FAM174B (11720279_a_at) / RFU TMPRSS4 (11748680_a_at) / Fold change /veh TMPRSS4 (11748680_a_at) / RFU FAM212B (11763350_a_at) / Fold change /veh FAM212B (11763350_a_at) / RFU PLEKHG5 (11743358_a_at) / Fold change /veh PLEKHG5 (11743358_a_at) / RFU ZSCAN30 (11745921_a_at) / Fold change /veh ZSCAN30 (11745921_a_at) / RFU CMKLR1 (11741424_a_at) / Fold change /veh CMKLR1 (11741424_a_at) / RFU LOC101060620 /// MAPK8IP1 (11723275_at) / Fold change /veh LOC101060620 /// MAPK8IP1 (11723275_at) / RFU SPTSSB (11747773_x_at) / Fold change /veh SPTSSB (11747773_x_at) / RFU PRSS12 (11739890_at) / Fold change /veh PRSS12 (11739890_at) / RFU BIN1 (11741810_x_at) / Fold change /veh BIN1 (11741810_x_at) / RFU WNT11 (11732464_a_at) / Fold change /veh WNT11 (11732464_a_at) / RFU C10orf10 (11716521_a_at) / Fold change /veh C10orf10 (11716521_a_at) / RFU C5orf56 (11738089_at) / Fold change /veh C5orf56 (11738089_at) / RFU CYB561 (11721691_x_at) / Fold change /veh CYB561 (11721691_x_at) / RFU ANKRD19P (11752326_a_at) / Fold change /veh ANKRD19P (11752326_a_at) / RFU OR2T12 /// OR2T33 /// OR2T8 (11738714_s_at) / Fold change /veh OR2T12 /// OR2T33 /// OR2T8 (11738714_s_at) / RFU VCAN (11748164_a_at) / Fold change /veh VCAN (11748164_a_at) / RFU JSRP1 (11732532_at) / Fold change /veh JSRP1 (11732532_at) / RFU KRTAP10-11 (11738290_x_at) / Fold change /veh KRTAP10-11 (11738290_x_at) / RFU MYO3A (11730013_a_at) / Fold change /veh MYO3A (11730013_a_at) / RFU EBF3 (11725865_a_at) / Fold change /veh EBF3 (11725865_a_at) / RFU CAMK2N1 (11719241_x_at) / Fold change /veh CAMK2N1 (11719241_x_at) / RFU C5orf56 (11738088_a_at) / Fold change /veh C5orf56 (11738088_a_at) / RFU OLFML3 (11715873_a_at) / Fold change /veh OLFML3 (11715873_a_at) / RFU LOC100653217 /// NTM (11731650_a_at) / Fold change /veh LOC100653217 /// NTM (11731650_a_at) / RFU MAPK11 (11762145_a_at) / Fold change /veh MAPK11 (11762145_a_at) / RFU FIZ1 (11724087_x_at) / Fold change /veh FIZ1 (11724087_x_at) / RFU OASL (11726364_x_at) / Fold change /veh OASL (11726364_x_at) / RFU SOX15 (11748057_x_at) / Fold change /veh SOX15 (11748057_x_at) / RFU CD79A (11719716_a_at) / Fold change /veh CD79A (11719716_a_at) / RFU HIST1H1D (11736915_at) / Fold change /veh HIST1H1D (11736915_at) / RFU CASKIN2 (11723855_a_at) / Fold change /veh CASKIN2 (11723855_a_at) / RFU LOC730098 (11760151_x_at) / Fold change /veh LOC730098 (11760151_x_at) / RFU OR4N2 (11742367_at) / Fold change /veh OR4N2 (11742367_at) / RFU PRRT2 (11749266_a_at) / Fold change /veh PRRT2 (11749266_a_at) / RFU SNX32 (11753110_a_at) / Fold change /veh SNX32 (11753110_a_at) / RFU CDHR5 (11726645_a_at) / Fold change /veh CDHR5 (11726645_a_at) / RFU RCAN1 (11760418_a_at) / Fold change /veh RCAN1 (11760418_a_at) / RFU FAM167A (11723789_a_at) / Fold change /veh FAM167A (11723789_a_at) / RFU FAM26E (11764081_at) / Fold change /veh FAM26E (11764081_at) / RFU ISYNA1 (11749810_s_at) / Fold change /veh ISYNA1 (11749810_s_at) / RFU ACY1 (11761880_at) / Fold change /veh ACY1 (11761880_at) / RFU 11764098_at / Fold change /veh 11764098_at / RFU SAMD14 (11745864_x_at) / Fold change /veh SAMD14 (11745864_x_at) / RFU NPB (11741838_a_at) / Fold change /veh NPB (11741838_a_at) / RFU TMPRSS6 (11731388_a_at) / Fold change /veh TMPRSS6 (11731388_a_at) / RFU KRTAP10-2 (11738614_at) / Fold change /veh KRTAP10-2 (11738614_at) / RFU ARHGAP8 /// PRR5-ARHGAP8 (11727945_x_at) / Fold change /veh ARHGAP8 /// PRR5-ARHGAP8 (11727945_x_at) / RFU KRTAP5-7 /// NADSYN1 (11734609_at) / Fold change /veh KRTAP5-7 /// NADSYN1 (11734609_at) / RFU RASL12 (11751679_a_at) / Fold change /veh RASL12 (11751679_a_at) / RFU CDKN2B (11736163_a_at) / Fold change /veh CDKN2B (11736163_a_at) / RFU PRF1 (11729649_at) / Fold change /veh PRF1 (11729649_at) / RFU, ZNF638 /// ZNF638-IT1 / Fold change vs veh, ZNF638 /// ZNF638-IT1 / RFU, PANK3 / Fold change vs veh, PANK3 / RFU, SH3YL1 / Fold change vs veh, SH3YL1 / RFU, ZEB2 / Fold change vs veh, ZEB2 / RFU, NRIP1 / Fold change vs veh, NRIP1 / RFU, PTTG1IP / Fold change vs veh, PTTG1IP / RFU, CAPN2 / Fold change vs veh, CAPN2 / RFU, MED14 / Fold change vs veh, MED14 / RFU, SNORA58 / Fold change vs veh, SNORA58 / RFU, C1orf63 / Fold change vs veh, C1orf63 / RFU, LRRFIP1 / Fold change vs veh, LRRFIP1 / RFU, NDUFAF7 / Fold change vs veh, NDUFAF7 / RFU, SLC12A2 / Fold change vs veh, SLC12A2 / RFU, IBTK / Fold change vs veh, IBTK / RFU, ESF1 / Fold change vs veh, ESF1 / Fold change vs veh, TMEM50B / RFU, TAOK1 / Fold change vs veh, TAOK1 / RFU, ACBD3 / Fold change vs veh, ACBD3 / RFU, TMA16 / Fold change vs veh, TMA16 / RFU, RWDD3 / Fold change vs veh, RWDD3 / RFU, BCAT1 / Fold change vs veh, BCAT1 / RFU, EDEM3 / Fold change vs veh, EDEM3 / RFU, TMEM33 / Fold change vs veh, TMEM33 / RFU, WDR75 / Fold change vs veh, WDR75 / RFU, AHCTF1 / Fold change vs veh, AHCTF1 / RFU, TFRC / Fold change vs veh, TFRC / RFU, ZDHHC17 / Fold change vs veh, ZDHHC17 / RFU, NOM1 / Fold change vs veh, NOM1 / RFU, ARL8B / Fold change vs veh, ARL8B / RFU, ZBTB11 / Fold change vs veh, ZBTB11 / RFU, TAMM41 / Fold change vs veh, TAMM41 / RFU, KIAA1704 /// LOC100996395 / Fold change vs veh, KIAA1704 /// LOC100996395 / RFU, ING1 / Fold change vs veh, ING1 / RFU, TRMT61B / Fold change vs veh, TRMT61B / RFU, FUBP3 / Fold change vs veh, FUBP3 / RFU, TP53 / Fold change vs veh, TP53 / RFU, TNKS2 / Fold change vs veh, TNKS2 / RFU, ZFP14 / Fold change vs veh, ZFP14 / RFU, ACTR2 / Fold change vs veh, ACTR2 / RFU, PPP3R1 / Fold change vs veh, PPP3R1 / RFU, PIK3R1 / Fold change vs veh, PIK3R1 / RFU, HNRNPA1 / Fold change vs veh, HNRNPA1 / RFU, RNF170 / Fold change vs veh, RNF170 / RFU, ZNF28 / Fold change vs veh, ZNF28 / RFU, RNGTT / Fold change vs veh, RNGTT / RFU, OGT / Fold change vs veh, OGT / RFU, BRD1 / Fold change vs veh, BRD1 / RFU, MARS / Fold change vs veh, MARS / RFU, ZNF655 / Fold change vs veh, ZNF655 / RFU, FAHD1 / Fold change vs veh, FAHD1 / RFU, BDP1 / Fold change vs veh, BDP1 / RFU, LRRCC1 / Fold change vs veh, LRRCC1 / RFU, ARID1A / Fold change vs veh, ARID1A / RFU, ZNF146 / Fold change vs veh, ZNF146 / RFU, ZNF330 / Fold change vs veh, ZNF330 / RFU, GPN3 / Fold change vs veh, GPN3 / RFU, C9orf123 / Fold change vs veh, C9orf123 / RFU, N4BP2L2 / Fold change vs veh, N4BP2L2 / RFU, ARFIP1 / Fold change vs veh, ARFIP1 / RFU, FAM179B / Fold change vs veh, FAM179B / RFU, BCL10 / Fold change vs veh, BCL10 / RFU, UHRF1BP1L / Fold change vs veh, UHRF1BP1L / RFU, BET1 / Fold change vs veh, BET1 / RFU, CNOT2 / Fold change vs veh, CNOT2 / RFU, ZNF268 / Fold change vs veh, ZNF268 / Fold change vs veh, ZNF507 / RFU, DGCR2 / Fold change vs veh, DGCR2 / RFU, WDSUB1 / Fold change vs veh, WDSUB1 / Fold change vs veh, HSP90B1 /// MIR3652 / RFU, ADSS / Fold change vs veh, ADSS / RFU, GK / Fold change vs veh, GK / RFU, ZNF148 / Fold change vs veh, ZNF148 / RFU, TAF9 / Fold change vs veh, TAF9 / RFU, SLC1A5 / Fold change vs veh, SLC1A5 / RFU, SLMO2 / Fold change vs veh, SLMO2 / RFU, ABCC4 / Fold change vs veh, ABCC4 / RFU, LOC101060439 /// RAP1B / Fold change vs veh, LOC101060439 /// RAP1B / RFU, RFX7 / Fold change vs veh, RFX7 / RFU, GTPBP10 / Fold change vs veh, GTPBP10 / RFU, CNEP1R1 / Fold change vs veh, CNEP1R1 / RFU, BIVM-ERCC5 /// ERCC5 / Fold change vs veh, BIVM-ERCC5 /// ERCC5 / RFU, ILF3 / Fold change vs veh, ILF3 / RFU 11762660_at / Fold change /veh 11762660_at / RFU VCAN (11757783_s_at) / Fold change /veh VCAN (11757783_s_at) / RFU DDX43 (11728927_at) / Fold change /veh DDX43 (11728927_at) / RFU KRT8 (11758188_x_at) / Fold change /veh KRT8 (11758188_x_at) / RFU NKD1 (11759106_at) / Fold change /veh NKD1 (11759106_at) / RFU SRD5A1 (11742802_a_at) / Fold change /veh SRD5A1 (11742802_a_at) / RFU TPSAB1 /// TPSB2 (11721975_s_at) / Fold change /veh TPSAB1 /// TPSB2 (11721975_s_at) / RFU GSTM3 (11746129_a_at) / Fold change /veh GSTM3 (11746129_a_at) / RFU IL23R (11737362_x_at) / Fold change /veh IL23R (11737362_x_at) / RFU TMEM51 (11727254_a_at) / Fold change /veh TMEM51 (11727254_a_at) / RFU PIWIL2 (11732686_x_at) / Fold change /veh PIWIL2 (11732686_x_at) / RFU ORM1 (11744905_x_at) / Fold change /veh ORM1 (11744905_x_at) / RFU CCDC152 (11743942_at) / Fold change /veh CCDC152 (11743942_at) / RFU ECM1 (11717891_a_at) / Fold change /veh ECM1 (11717891_a_at) / RFU IL23R (11748794_a_at) / Fold change /veh IL23R (11748794_a_at) / RFU TNFAIP8L3 (11732012_x_at) / Fold change /veh TNFAIP8L3 (11732012_x_at) / RFU MBOAT4 (11741988_at) / Fold change /veh MBOAT4 (11741988_at) / RFU 11764193_at / Fold change /veh 11764193_at / RFU TMEM53 (11763286_at) / Fold change /veh TMEM53 (11763286_at) / RFU MAGEB2 (11727129_at) / Fold change /veh MAGEB2 (11727129_at) / RFU TMEM200A (11744735_a_at) / Fold change /veh TMEM200A (11744735_a_at) / RFU CCDC152 (11751479_a_at) / Fold change /veh CCDC152 (11751479_a_at) / RFU FAM211A (11726209_a_at) / Fold change /veh FAM211A (11726209_a_at) / RFU RGS16 (11746705_a_at) / Fold change /veh RGS16 (11746705_a_at) / RFU VCAN (11755009_s_at) / Fold change /veh VCAN (11755009_s_at) / RFU RHOB (11743442_s_at) / Fold change /veh RHOB (11743442_s_at) / RFU RGS16 (11720943_a_at) / Fold change /veh RGS16 (11720943_a_at) / RFU RGS16 (11720944_at) / Fold change /veh RGS16 (11720944_at) / RFU, VPS4B / Fold change vs veh, VPS4B / RFU, CREB1 / Fold change vs veh, CREB1 / RFU, DNAJC13 / Fold change vs veh, DNAJC13 / RFU, GNAQ / Fold change vs veh, GNAQ / RFU, CDK5R1 / Fold change vs veh, CDK5R1 / RFU, ZRANB3 / Fold change vs veh, ZRANB3 / RFU, CUL4A / Fold change vs veh, CUL4A / RFU, CCNY / Fold change vs veh, CCNY / RFU, UFL1 / Fold change vs veh, UFL1 / RFU, COG3 / Fold change vs veh, COG3 / RFU, DIAPH2 / Fold change vs veh, DIAPH2 / RFU, SKA2 / Fold change vs veh, SKA2 / RFU, AFF3 / Fold change vs veh, AFF3 / RFU, LMF1 / Fold change vs veh, LMF1 / RFU, IPO11 / Fold change vs veh, IPO11 / RFU, DFFB / Fold change vs veh, DFFB / RFU, FOXP1 / Fold change vs veh, FOXP1 / RFU, CARD8 / Fold change vs veh, CARD8 / RFU, STRN3 / Fold change vs veh, STRN3 / RFU, ADK / Fold change vs veh, ADK / RFU, RASSF2 / Fold change vs veh, RASSF2 / RFU, WIPF1 / Fold change vs veh, WIPF1 / RFU, LARP1B / Fold change vs veh, LARP1B / RFU, RASA1 / Fold change vs veh, RASA1 / RFU, RB1 / Fold change vs veh, RB1 / RFU, PPFIA1 / Fold change vs veh, PPFIA1 / RFU, MAT2A / Fold change vs veh, MAT2A / RFU, CCT5 / Fold change vs veh, CCT5 / RFU, WDR92 / Fold change vs veh, WDR92 / RFU, CUX1 / Fold change vs veh, CUX1 / RFU, TTC7A / Fold change vs veh, TTC7A / RFU, TMEM135 / Fold change vs veh, TMEM135 / RFU, DEPTOR / Fold change vs veh, DEPTOR / RFU, CPM / Fold change vs veh, CPM / RFU, DNAJB6 / Fold change vs veh, DNAJB6 / RFU, CACNA2D3 / Fold change vs veh, CACNA2D3 / RFU, DTX4 / Fold change vs veh, DTX4 / RFU, TFCP2 / Fold change vs veh, TFCP2 / RFU, GMCL1 /// GMCL1P1 / Fold change vs veh, GMCL1 /// GMCL1P1 / RFU, AEBP2 / Fold change vs veh, AEBP2 / RFU, SNHG1 /// SNORD22 /// SNORD25 /// SNORD26 /// SNORD27 /// SNORD28 /// SNORD29 /// SNORD31 / Fold change vs veh, SNHG1 /// SNORD22 /// SNORD25 /// SNORD26 /// SNORD27 /// SNORD28 /// SNORD29 /// SNORD31 / Fold change (Aza/veh), C12orf56 (ProbeSet 11735607_a_at) / Fold change (ACY-1035/veh), C12orf56 (ProbeSet 11735607_a_at) / Fold change (Aza/veh), FGFR1OP (ProbeSet 11751329_s_at) / Fold change (ACY-1035/veh), FGFR1OP (ProbeSet 11751329_s_at) / Fold change (Aza/veh), VPS36 (ProbeSet 11739960_a_at) / Fold change (ACY-1035/veh), VPS36 (ProbeSet 11739960_a_at) / RFU SYPL1 (11715823_x_at) / Fold change /veh SYPL1 (11715823_x_at) / RFU IGFBP7 (11715501_s_at) / Fold change /veh IGFBP7 (11715501_s_at) / RFU REEP3 (11722064_at) / Fold change /veh REEP3 (11722064_at) / RFU IGLL1 (11728026_x_at) / Fold change /veh IGLL1 (11728026_x_at): dose or concentration left out as unconfirmed
Details: MV-4-11 cells, 48 hours

Q: How did the “RFU TMPRSS6 (11731388_a_at)” value turn out when `Nc1ccc(-c2cccs2)cc1NC(=O)c1ccc2c(c1)cc(C1CC1)n2CCN1CCOCC1` [ACY-1035] was run?
A: 73.78 RFU
